Measurements from patent publication US10004701B2, “Methods and compositions for treating infection” (UNIVERSITY OF ROCHESTER, priority 2012, dated 2018).
Counter-ions that a name gives are not always drawn. Like-named read-outs stand apart in the source and are kept apart here.

What was measured:
Assay in all cases: AK assay 384-well format, Prestwick library screening
E. faecium = type: cell-based, Enterococcus faecium; conditions: 50 μM final drug concentration; for fold induction at 50 µM: Enterococcus faecium, 3 h
K. pneumoniae = type: cell-based, Klebsiella pneumoniae; conditions: 50 μM final drug concentration; for fold induction at 50 µM: Klebsiella pneumoniae, 3 h
P. aeruginosa = type: cell-based, Pseudomonas aeruginosa; conditions: 50 μM final drug concentration; for fold induction at 50 µM: Pseudomonas aeruginosa, 3 h
[1] = tested on: S. aureus strain USA300-0114; type: cell-based, Staphylococcus aureus; conditions: 50 μM final drug concentration; for fold induction at 50 µM: Staphylococcus aureus, USA300, 3 h
E. cloacae = type: cell-based, Enterobacter cloacae; conditions: 50 μM final drug concentration; for fold induction at 50 µM: Enterobacter cloacae, 3 h
[2] = tested on: A. baumannii strain 98-37-09; type: cell-based, Acinetobacter baumannii; conditions: 50 μM final drug concentration; for fold induction at 50 µM: Acinetobacter baumannii, 983709, 3 h
E. coli = type: cell-based, Escherichia coli; conditions: for fold induction at 50 µM: Escherichia coli, 3 h
[3] = cutoff for positive-scoring molecules 3-fold increase, read-out: AK-based Prestwick Library Screening Results, E. faecium (fold increase in extracellular AK activity)
[4] = cutoff for positive-scoring molecules 3-fold increase, read-out: AK-based Prestwick Library Screening Results, K. pneumoniae (fold increase in extracellular AK activity)
[5] = cutoff for positive-scoring molecules 3-fold increase, read-out: AK-based Prestwick Library Screening Results, P. aeruginosa (fold increase in extracellular AK activity)
[6] = cutoff for positive-scoring molecules 3-fold increase, read-out: AK-based Prestwick Library Screening Results, S. aureus (fold increase in extracellular AK activity)
[7] = cutoff for positive-scoring molecules 3-fold increase, read-out: AK-based Prestwick Library Screening Results, E. cloacae (fold increase in extracellular AK activity)
[8] = cutoff for positive-scoring molecules 3-fold increase, read-out: AK-based Prestwick Library Screening Results, A. baumannii (fold increase in extracellular AK activity)
[9] = 50 μM final drug concentration, cutoff for positive-scoring molecules 3-fold increase, read-out: AK-based Prestwick Library Screening Results, E. coli (fold increase in extracellular AK activity)

Compound: Dihydroergotoxine mesylate
- AK-based Prestwick Library Screening Results, E. faecium (increase in extracellular AK activity) (E. faecium; planktonic E. faecium, cutoff for positive-scoring molecules 3-fold increase): 0.8
- AK-based Prestwick Library Screening Results, K. pneumoniae (increase in extracellular AK activity) (K. pneumoniae; planktonic K. pneumoniae, cutoff for positive-scoring molecules 3-fold increase): 0.5
- AK-based Prestwick Library Screening Results, P. aeruginosa (increase in extracellular AK activity) (P. aeruginosa; planktonic P. aeruginosa, cutoff for positive-scoring molecules 3-fold increase): 0.4
- AK-based Prestwick Library Screening Results, S. aureus (increase in extracellular AK activity) ([1]; planktonic S. aureus, cutoff for positive-scoring molecules 3-fold increase): 0.4
- AK-based Prestwick Library Screening Results, E. cloacae (increase in extracellular AK activity) (E. cloacae; planktonic E. cloacae, cutoff for positive-scoring molecules 3-fold increase): 0.6
- AK-based Prestwick Library Screening Results, A. baumannii (increase in extracellular AK activity) ([2]; planktonic A. baumannii, cutoff for positive-scoring molecules 3-fold increase): 0.5
- AK-based Prestwick Library Screening Results, E. coli (increase in extracellular AK activity) (E. coli; planktonic E. coli, 50 μM final drug concentration, cutoff for positive-scoring molecules 3-fold increase): 0.6

Compound: CN(C)CCCN1c2ccccc2Sc2ccc(C(F)(F)F)cc21 [Triflupromazine hydrochloride]
- fold induction at 50 µM (E. faecium; planktonic E. faecium, 384-well, […], read-out: AK-based Prestwick Library Screening Results: E. faecium (increase in extracellular AK activity)): 0.9
- fold induction at 50 µM (K. pneumoniae; planktonic K. pneumoniae, 384-well, […], read-out: AK-based Prestwick Library Screening Results: K. pneumoniae (increase in extracellular AK activity)): 1
- fold induction at 50 µM (P. aeruginosa; planktonic P. aeruginosa, 384-well, […], read-out: AK-based Prestwick Library Screening Results: P. aeruginosa (increase in extracellular AK activity)): 1
- fold induction at 50 µM ([1]; planktonic S. aureus, 384-well, […], read-out: AK-based Prestwick Library Screening Results: S. aureus (increase in extracellular AK activity)): 1.1
- fold induction at 50 µM (E. cloacae; planktonic E. cloacae, 384-well, […], read-out: AK-based Prestwick Library Screening Results: E. cloacae (increase in extracellular AK activity)): 1.6
- fold induction at 50 µM ([2]; planktonic A. baumannii, 384-well, […], read-out: AK-based Prestwick Library Screening Results: A. baumannii (increase in extracellular AK activity)): 1.5
- fold induction at 50 µM (E. coli; read-out: AK-based Prestwick Library Screening Results: E. coli (increase in extracellular AK activity)): 1.1

Compound: C[C@H](CCC(=O)O)[C@H]1CC[C@H]2[C@@H]3[C@H](O)C[C@@H]4C[C@H](O)CC[C@]4(C)[C@H]3CC[C@]12C [Chenodiol]
- fold induction at 50 µM (E. faecium; planktonic E. faecium, 384-well, cutoff for positive-scoring molecules 3-fold increase, read-out: AK-based Prestwick Library Screening Results: E. faecium (increase in extracellular AK activity)): 1
- fold induction at 50 µM (K. pneumoniae; planktonic K. pneumoniae, 384-well, cutoff for positive-scoring molecules 3-fold increase, read-out: AK-based Prestwick Library Screening Results: K. pneumoniae (increase in extracellular AK activity)): 0.8
- fold induction at 50 µM (P. aeruginosa; planktonic P. aeruginosa, 384-well, cutoff for positive-scoring molecules 3-fold increase, read-out: AK-based Prestwick Library Screening Results: P. aeruginosa (increase in extracellular AK activity)): 1.2
- fold induction at 50 µM ([1]; planktonic S. aureus, 384-well, cutoff for positive-scoring molecules 3-fold increase, read-out: AK-based Prestwick Library Screening Results: S. aureus (increase in extracellular AK activity)): 1.7
- fold induction at 50 µM (E. cloacae; planktonic E. cloacae, 384-well, cutoff for positive-scoring molecules 3-fold increase, read-out: AK-based Prestwick Library Screening Results: E. cloacae (increase in extracellular AK activity)): 1.5
- fold induction at 50 µM ([2]; planktonic A. baumannii, 384-well, cutoff for positive-scoring molecules 3-fold increase, read-out: AK-based Prestwick Library Screening Results: A. baumannii (increase in extracellular AK activity)): 1
- fold induction at 50 µM (E. coli; planktonic E. coli, 50 μM final drug concentration, 384-well, cutoff for positive-scoring molecules 3-fold increase, read-out: AK-based Prestwick Library Screening Results: E. coli (increase in extracellular AK activity)): 1.2

Compound: COc1ccccc1N1CCN(CC(O)COc2cccc3ccccc23)CC1 (stereo not drawn) [Naftopidil dihydrochloride]
- fold induction at 50 µM (E. faecium; [3]): 0.8
- fold induction at 50 µM (K. pneumoniae; [4]): 0.6
- fold induction at 50 µM (P. aeruginosa; [5]): 0.7
- fold induction at 50 µM [1, 6]: 0.5
- fold induction at 50 µM (E. cloacae; [7]): 0.9
- fold induction at 50 µM [2, 8]: 0.7
- fold induction at 50 µM (E. coli; [9]): 0.9

Compound: O=c1c(O)c(-c2cc(O)c(O)c(O)c2)oc2cc(O)cc(O)c12 [Myricetin]
- fold induction at 50 µM (E. faecium; planktonic, cutoff for positive 3-fold increase, read-out: AK-based Prestwick Library Screening Results, E. faecium (fold increase in extracellular AK activity)): 0.8
- fold induction at 50 µM (K. pneumoniae; planktonic, cutoff for positive 3-fold increase, read-out: AK-based Prestwick Library Screening Results, K. pneumoniae (fold increase in extracellular AK activity)): 0.9
- fold induction at 50 µM (P. aeruginosa; planktonic, cutoff for positive 3-fold increase, read-out: AK-based Prestwick Library Screening Results, P. aeruginosa (fold increase in extracellular AK activity)): 0.9
- fold induction at 50 µM ([1]; planktonic, cutoff for positive 3-fold increase, read-out: AK-based Prestwick Library Screening Results, S. aureus (fold increase in extracellular AK activity)): 0.5
- fold induction at 50 µM (E. cloacae; planktonic, cutoff for positive 3-fold increase, read-out: AK-based Prestwick Library Screening Results, E. cloacae (fold increase in extracellular AK activity)): 1.2
- fold induction at 50 µM ([2]; planktonic, cutoff for positive 3-fold increase, read-out: AK-based Prestwick Library Screening Results, A. baumannii (fold increase in extracellular AK activity)): 0.8
- fold induction at 50 µM (E. coli; 50 μM final drug concentration, planktonic, cutoff for positive 3-fold increase, read-out: AK-based Prestwick Library Screening Results, E. coli (fold increase in extracellular AK activity)): 0.9

Compound: CN(C)CCOC(=O)COc1ccc(Cl)cc1 [Meclofenoxate hydrochloride]
- fold induction at 50 µM (E. faecium; planktonic, […], read-out: AK-based Prestwick Library Screening Results, E. faecium (fold increase in extracellular AK activity)): 1
- fold induction at 50 µM (K. pneumoniae; planktonic, […], read-out: AK-based Prestwick Library Screening Results, K. pneumoniae (fold increase in extracellular AK activity)): 1
- fold induction at 50 µM (P. aeruginosa; planktonic, […], read-out: AK-based Prestwick Library Screening Results, P. aeruginosa (fold increase in extracellular AK activity)): 1.1
- fold induction at 50 µM ([1]; planktonic, […], read-out: AK-based Prestwick Library Screening Results, S. aureus (fold increase in extracellular AK activity)): 1.2
- fold induction at 50 µM (E. cloacae; planktonic, […], read-out: AK-based Prestwick Library Screening Results, E. cloacae (fold increase in extracellular AK activity)): 1.4
- fold induction at 50 µM ([2]; planktonic, […], read-out: AK-based Prestwick Library Screening Results, A. baumannii (fold increase in extracellular AK activity)): 1
- fold induction at 50 µM (E. coli; 50 μM final drug concentration, planktonic, […], read-out: AK-based Prestwick Library Screening Results, E. coli (fold increase in extracellular AK activity)): 1.2

Compound: CC(=O)CCCCn1c(=O)c2c(ncn2C)n(C)c1=O [Pentoxifylline]
- fold induction at 50 µM (E. faecium; 384-well format, cutoff for positive-scoring molecules 3-fold increase, read-out: AK-based Prestwick Library Screening Results, E. faecium (increase in extracellular AK activity)): 0.9
- fold induction at 50 µM (K. pneumoniae; 384-well format, cutoff for positive-scoring molecules 3-fold increase, read-out: AK-based Prestwick Library Screening Results, K. pneumoniae (increase in extracellular AK activity)): 0.7
- fold induction at 50 µM (P. aeruginosa; 384-well format, cutoff for positive-scoring molecules 3-fold increase, read-out: AK-based Prestwick Library Screening Results, P. aeruginosa (increase in extracellular AK activity)): 0.8
- fold induction at 50 µM ([1]; 384-well format, cutoff for positive-scoring molecules 3-fold increase, read-out: AK-based Prestwick Library Screening Results, S. aureus (increase in extracellular AK activity)): 0.8
- fold induction at 50 µM (E. cloacae; 384-well format, cutoff for positive-scoring molecules 3-fold increase, read-out: AK-based Prestwick Library Screening Results, E. cloacae (increase in extracellular AK activity)): 1.1
- fold induction at 50 µM ([2]; 384-well format, cutoff for positive-scoring molecules 3-fold increase, read-out: AK-based Prestwick Library Screening Results, A. baumannii (increase in extracellular AK activity)): 0.9
- fold induction at 50 µM (E. coli; 50 μM final drug concentration, 384-well format, cutoff for positive-scoring molecules 3-fold increase, read-out: AK-based Prestwick Library Screening Results, E. coli (increase in extracellular AK activity)): 0.8

Compound: COC1=C[C@@H]2C3=C([C@@H]2C1=O)[C@@H](NC(C)=O)CCc1cc(OC)c(OC)c(OC)c13 [Lumicolchicine gamma]
- AK-based Prestwick Library Screening Results, E. faecium (fold increase in extracellular AK activity) (E. faecium; planktonic, […]): 1.0
- AK-based Prestwick Library Screening Results, K. pneumoniae (fold increase in extracellular AK activity) (K. pneumoniae; planktonic, […]): 1.0
- AK-based Prestwick Library Screening Results, P. aeruginosa (fold increase in extracellular AK activity) (P. aeruginosa; planktonic, […]): 1.1
- AK-based Prestwick Library Screening Results, S. aureus (fold increase in extracellular AK activity) ([1]; planktonic, […]): 0.9
- AK-based Prestwick Library Screening Results, E. cloacae (fold increase in extracellular AK activity) (E. cloacae; planktonic, […]): 1.4
- AK-based Prestwick Library Screening Results, A. baumannii (fold increase in extracellular AK activity) ([2]; planktonic, […]): 1.2
- AK-based Prestwick Library Screening Results, E. coli (fold increase in extracellular AK activity) (E. coli; 50 μM final drug concentration, planktonic, […]): 1.1

Compound: CCN1CCC[C@H]1CNC(=O)c1c(OC)ccc(Br)c1OC [Remoxipride Hydrochloride]
- fold induction at 50 µM (E. faecium; [3]): 0.9
- fold induction at 50 µM (K. pneumoniae; [4]): 0.6
- fold induction at 50 µM (P. aeruginosa; [5]): 0.7
- fold induction at 50 µM [1, 6]: 0.6
- fold induction at 50 µM (E. cloacae; [7]): 0.8
- fold induction at 50 µM [2, 8]: 0.7
- fold induction at 50 µM (E. coli; [9]): 0.7
